Structures can show the parent of a compound that is named as a salt.
Columns and labels:
Format in all cases: functional, cell-based
Lu1 = test: Cytotoxicity against human Lu1 cells after 72 hrs by SRB assay; conditions: Lu1, 72 h
KB = test: Cytotoxicity against human KB cells after 72 hrs by SRB assay
MCF7 = test: Cytotoxicity against human MCF7 cells after 72 hrs by SRB assay; conditions: MCF7, 72 h
HepG2 = test: Cytotoxicity against human HepG2 cells after 72 hrs by SRB assay; conditions: HepG2, 72 h

| SMILES | IC50 (Lu1) [µM] | IC50 (KB) [µM] | IC50 (MCF7) [µM] | IC50 (HepG2) [µM] |
| --- | --- | --- | --- | --- |
| CC[C@]1(O)C[C@@H]2C[C@](C(=O)OC)(c3cc4c(cc3OC)N(C)[C@H]3[C@@](O)(C(=O)OC)[C@H](OC(C)=O)[C@]5(CC)C=CCN6CC[C@]43[C@@H]65)c3[nH]c4ccccc4c3CC[N@+](CC(=O)/C=C/c3ccc4ccccc4c3)(C2)C1 | 15.1 | 0.03 | 13.7 | 18.1 |
| CC[C@]1(O)C[C@@H]2C[C@](C(=O)OC)(c3cc4c(cc3OC)N(C=O)[C@H]3[C@@](O)(C(=O)OC)[C@H](OC(C)=O)[C@]5(CC)C=CCN6CC[C@]43[C@@H]65)c3[nH]c4ccccc4c3CC[N@+](CC(=O)/C=C/c3ccc(O)c(OC)c3)(C2)C1 | 3.45 | 1.67 | 3.08 | 2.44 |
| CC[C@]1(O)C[C@@H]2C[C@](C(=O)OC)(c3cc4c(cc3OC)N(C)[C@H]3[C@@](O)(C(=O)OC)[C@H](OC(C)=O)[C@]5(CC)C=CCN6CC[C@]43[C@@H]65)c3[nH]c4ccccc4c3CC[N@+](CC(=O)/C=C/c3ccc(Cl)cc3)(C2)C1 | 4.25 | 0.06 | 4.89 | 7.77 |
| CC[C@]1(O)C[C@@H]2C[C@](C(=O)OC)(c3cc4c(cc3OC)N(C=O)[C@H]3[C@@](O)(C(=O)OC)[C@H](OC(C)=O)[C@]5(CC)C=CCN6CC[C@]43[C@@H]65)c3[nH]c4ccccc4c3CC[N@+](CC(=O)/C=C/c3ccc4ccccc4c3)(C2)C1 | 12 | 0.08 | 11 | 7.94 |
| CCC1=C[C@@H]2C[C@](C(=O)OC)(c3cc4c(cc3OC)N(C)[C@H]3[C@@](O)(C(=O)OC)[C@H](OC(C)=O)[C@]5(CC)C=CCN6CC[C@]43[C@@H]65)c3[nH]c4ccccc4c3CC[N@@+](CC(=O)/C=C/c3ccc(Cl)cc3)(C1)C2 | 1.31 | 0.28 | 1.83 | 1.75 |
| CCC1=C[C@H]2CN(CCc3c([nH]c4ccccc34)[C@@](C(=O)OC)(c3c(OC)cc(N)cc3OC)C2)C1 | 19.4 | 11.5 | 21 | 20.4 |
| CC[C@]1(O)C[C@@H]2C[C@](C(=O)OC)(c3cc4c(cc3OC)N(C=O)[C@H]3[C@@](O)(C(=O)OC)[C@H](OC(C)=O)[C@]5(CC)C=CCN6CC[C@]43[C@@H]65)c3[nH]c4ccccc4c3CC[N@+](CC(=O)/C=C/c3ccc(Cl)cc3)(C2)C1 | 13.8 | 0.03 | 10.9 | 14.2 |
| CCC1=C[C@@H]2C[C@](C(=O)OC)(c3c(OC)cc(N)cc3OC)c3[nH]c4ccccc4c3CC[N@@+](CC(=O)/C=C/c3ccc4ccccc4c3)(C1)C2 | 8.34 | 4.16 | 11.9 | 10.9 |
| CCC1=C[C@@H]2C[C@](C(=O)OC)(c3c(OC)cc(N)cc3OC)c3[nH]c4ccccc4c3CC[N@@+](CC(=O)/C=C/c3ccc(O)c(OC)c3)(C1)C2 | 79 | 9.11 | 94.5 | 86.8 |
| CCC1=C[C@@H]2C[C@](C(=O)OC)(c3c(OC)cc(N)cc3OC)c3[nH]c4ccccc4c3CC[N@@+](CC(=O)/C=C/c3ccc(Cl)cc3)(C1)C2 | 13.8 | 6.12 | 17.9 | 20.2 |
| CCC1=C[C@@H]2C[C@](C(=O)OC)(c3cc4c(cc3OC)N(C)[C@H]3[C@@](O)(C(=O)OC)[C@H](OC(C)=O)[C@]5(CC)C=CCN6CC[C@]43[C@@H]65)c3[nH]c4ccccc4c3CC[N@@+](CC(=O)/C=C/c3ccc(O)c(OC)c3)(C1)C2 | 57.5 | 0.64 | 50.5 | 51.5 |
| CCC1=C[C@@H]2C[C@](C(=O)OC)(c3cc4c(cc3OC)N(C)[C@H]3[C@@](O)(C(=O)OC)[C@H](OC(C)=O)[C@]5(CC)C=CCN6CC[C@]43[C@@H]65)c3[nH]c4ccccc4c3CC[N@@+](CC(=O)/C=C/c3ccc4ccccc4c3)(C1)C2 | 3.71 | 0.64 | 4.82 | 4.31 |
| CC[C@]1(O)C[C@@H]2C[C@](C(=O)OC)(c3cc4c(cc3OC)N(C)[C@H]3[C@@](O)(C(=O)OC)[C@H](OC(C)=O)[C@]5(CC)C=CCN6CC[C@]43[C@@H]65)c3[nH]c4ccccc4c3CC[N@+](CC(=O)/C=C/c3ccc(O)c(OC)c3)(C2)C1 | 4.8 | 1.69 | 12.5 | 7.23 |
| CC[C@]1(O)C[C@H]2CN(CCc3c([nH]c4ccccc34)[C@@](C(=O)OC)(c3cc4c(cc3OC)N(C)[C@H]3[C@@](O)(C(=O)OC)[C@H](OC(C)=O)[C@]5(CC)C=CCN6CC[C@]43[C@@H]65)C2)C1 | 0.47 | 0.02 | 0.23 | 0.34 |
| CCC1=C[C@H]2CN(CCc3c([nH]c4ccccc34)[C@@](C(=O)OC)(c3cc4c(cc3OC)N(C)[C@H]3[C@@](O)(C(=O)OC)[C@H](OC(C)=O)[C@]5(CC)C=CCN6CC[C@]43[C@@H]65)C2)C1 | 5.98 | 2.06 | 4.63 | 4.53 |
| Cc1c2ccncc2c(C)c2c1[nH]c1ccccc12 [ELLIPTECINE] | 2.31 | 1.66 | 1.54 | 2.07 |
| CC[C@]1(O)C[C@H]2CN(CCc3c([nH]c4ccccc34)[C@@](C(=O)OC)(c3cc4c(cc3OC)N(C=O)[C@H]3[C@@](O)(C(=O)OC)[C@H](OC(C)=O)[C@]5(CC)C=CCN6CC[C@]43[C@@H]65)C2)C1 [VINCRISTINE SULFATE] | 0.48 | 0.02 | 0.51 | 0.69 |

Source: ChEMBL document CHEMBL3734715, “Synthesis and antiproliferativeactivity of new vinca alkaloids containing an α,β-unsaturated aromatic side chain” (Bioorg Med Chem Lett, 2015)
